{"source": "patent US10898580B2", "about": "“Isoquinolidinobenzodiazepines” (priority 2015, dated 2021)", "key": {"THP-1": {"test_system": "THP-1", "assay": "Growth inhibition by payloads, CellTiter-Glo cell viability", "type": "cell-based", "settings": "Homo sapiens, MDR −", "procedure": "(§1) The cytotoxicity of the compounds was evaluated using the CellTiter-Glo Luminescent Cell Viability Assay (Promega Cat # G7573) as described in the manufacturer's instructions (Arduengo, M., Cell Notes, 2003, 5:15-17). This assay contains a reagent that lyses cells and generates a “glow-type” luminescent signal proportional to the amount of adenosine triphosphate (ATP) present, which is a measure of cell growth.\n(§2) Cells were seeded at 1000 cells per well in 50 μL of culture media into tissue culture 96-well flat-bottom plates. The perimeter wells of the plate were not used and 200 μL of media was added to the perimeter wells to prevent evaporation during incubation. 50 μL of the compound tested at twice the final concentration were then added to the wells in triplicate. Plates were incubated at 37° C., 5% CO2 for 72 hours before adding 100 μL CellTiter-Glo reagent to each well (excluding perimeter wells). Plates were then incubated at room temperature on a shaker for 10 minutes. After incubation, 100 μL of the supernatants were transferred to a solid white 96-well plate and luminescence was measured with a spectrophotometer. Percent viability was calculated based on untreated control: % viability=(treated/untreated)*100.\n(§3) GI50: Concentration of compound required for 50% cell growth inhibition.\n(§4) The cytotoxic activity of compounds CLT-D201, CLT-D501, CLT-D601 was tested against various cell lines in comparison with a pyrrolobenzodiazepine dimer labeled as PBD1 (structurally identical to SGD-1882, Spirogen Ltd.), having a formula: […]"}, "HEL92.1.7": {"test_system": "HEL92.1.7", "assay": "Growth inhibition by payloads, CellTiter-Glo cell viability", "type": "cell-based", "settings": "Homo sapiens, HEL 92.1.7, MDR +", "procedure": "as §1, §2, §3, §4"}, "SHI": {"test_system": "SHI", "assay": "Growth inhibition by payloads, CellTiter-Glo cell viability", "type": "cell-based", "settings": "MDR −", "procedure": "as §1, §2, §3, §4"}, "OCI-AML5": {"test_system": "OCI-AML5", "assay": "Growth inhibition by payloads, CellTiter-Glo cell viability", "type": "cell-based", "settings": "Homo sapiens, OCI-AML-5, MDR NA", "procedure": "as §1, §2, §3, §4"}, "TF-1": {"test_system": "TF-1", "assay": "Growth inhibition by payloads, CellTiter-Glo cell viability", "type": "cell-based", "settings": "Homo sapiens, MDR +", "procedure": "as §1, §2, §3, §4"}, "HNT-34": {"test_system": "HNT-34", "assay": "Growth inhibition by payloads, CellTiter-Glo cell viability", "type": "cell-based", "settings": "MDR +/−", "procedure": "as §1, §2, §3, §4"}, "HL-60": {"test_system": "HL-60", "assay": "Growth inhibition by payloads, CellTiter-Glo cell viability", "type": "cell-based", "settings": "Homo sapiens, MDR −", "procedure": "as §1, §2, §3, §4"}, "KG1": {"test_system": "KG1", "assay": "Growth inhibition by payloads, CellTiter-Glo cell viability", "type": "cell-based", "settings": "Homo sapiens, KG-1, MDR +", "procedure": "as §1, §2, §3, §4"}, "HL60 tumor cells": {"test_system": "HL60 tumor cells", "assay": "Orthotopic HL60 AML xenograft model", "type": "in vivo, NOD/SCID mice", "settings": "1 mg/kg, day 23 after inoculation", "procedure": "Orthotopically engrafted HL60 tumor-bearing mice were treated with unconjugated C0 (1 mg/Kg) antibody and control ADC (3 mg/Kg) as compared with mice treated with C6-CLT-D202-ADC (3 mg/Kg). The percentage of human HL60 tumor cells in the bone marrow (left panel) and in the peripheral blood (right panel) is shown, the median bar and interquartile error bars are denoted for N=4-6 mice. The table (bottom) indicates the median, minimum, maximum, and interquartile percentage of human HL60 cells in the bone marrow and peripheral blood of treated mice.\nFemale 6-8 week-old NOD/SCID mice were sub-lethally irradiated with 2.5 Gy, and 5 million HL60 tumors were injected intravenously at one day post-irradiation into the mice. Following 6 days of tumor cell inoculation (˜0.1-1% engraftment in the bone marrow), mice were dosed 3 times, and once per week (q7DX3) with 3 mg/Kg of C6-CLT-D202 ADC or with the same amount of control C0-ADC. Following 23 days of tumor cell inoculation, bone, spleen, and peripheral blood were collected from the treated mice and total hematopoietic cells were isolated. The percentage of human cells in these tissues was determined by flow cytometry using anti-human CD33 and CD45 antibodies. Data were analyzed by Flowjo software, and plotted with Prism software.\nGreater than 90% Tumor Growth Inhibition (TGI) was observed after administration with C6-CLT-D202 ADC."}}, "data": [{"molecule": "COc1cc2c(cc1OCCCOc1cc3c(cc1OC)C(=O)N1Cc4ccccc4CC1C=N3)N=CC1Cc3ccccc3CN1C2=O", "note": "(stereo not drawn) [CLT-D201]", "values": [{"measurement": "IC50", "setting": "THP-1", "value": 0.0291, "unit": "ng/mL"}, {"measurement": "IC50", "setting": "HEL92.1.7", "value": 0.0404, "unit": "ng/mL"}, {"measurement": "IC50", "setting": "SHI", "value": 0.0211, "unit": "ng/mL"}, {"measurement": "IC50", "setting": "OCI-AML5", "value": 0.00823, "unit": "ng/mL"}, {"measurement": "IC50", "setting": "TF-1", "value": 1.29, "unit": "ng/mL"}, {"measurement": "IC50", "setting": "HNT-34", "value": 0.014, "unit": "ng/mL"}, {"measurement": "IC50", "setting": "HL-60", "value": 0.002, "unit": "ng/mL"}, {"measurement": "IC50", "setting": "KG1", "value": 2.45, "unit": "ng/mL"}]}, {"molecule": "COc1ccc(C2=CN3C(=O)c4cc(OC)c(OCCCOc5cc6c(cc5OC)C(=O)N5C=C(c7ccc(N)cc7)C[C@@]5(C)C=N6)cc4N=C[C@]3(C)C2)cc1", "note": "[PBD1]", "values": [{"measurement": "IC50", "setting": "THP-1", "value": 0.0126, "unit": "ng/mL"}, {"measurement": "IC50", "setting": "HEL92.1.7", "value": 0.00387, "unit": "ng/mL"}, {"measurement": "IC50", "setting": "SHI", "value": 0.00547, "unit": "ng/mL"}, {"measurement": "IC50", "setting": "OCI-AML5", "value": 0.00208, "unit": "ng/mL"}, {"measurement": "IC50", "setting": "TF-1", "value": 0.447, "unit": "ng/mL"}, {"measurement": "IC50", "setting": "HNT-34", "value": 0.00149, "unit": "ng/mL"}, {"measurement": "IC50", "setting": "HL-60", "value": 0.0028, "unit": "ng/mL"}, {"measurement": "IC50", "setting": "KG1", "value": 0.66, "unit": "ng/mL"}]}, {"molecule": "Palivizumab [C0]", "values": [{"measurement": "percentage of human HL60 cells, 25% Percentile", "setting": "HL60 tumor cells; Blood", "value": 36.025, "unit": "%"}, {"measurement": "percentage of human HL60 cells, 75% Percentile", "setting": "HL60 tumor cells; Blood", "value": 68.1, "unit": "%"}, {"measurement": "percentage of human HL60 cells, Median", "setting": "HL60 tumor cells; Blood", "value": 56.5, "unit": "%"}, {"measurement": "percentage of human HL60 cells, Minimum", "setting": "HL60 tumor cells; Blood", "value": 30.4, "unit": "%"}, {"measurement": "percentage of human HL60 cells, 25% Percentile", "setting": "HL60 tumor cells; Bone marrow", "value": 60.85, "unit": "%"}, {"measurement": "percentage of human HL60 cells, 75% Percentile", "setting": "HL60 tumor cells; Bone marrow", "value": 85.8, "unit": "%"}, {"measurement": "percentage of human HL60 cells, Median", "setting": "HL60 tumor cells; Bone marrow", "value": 72.95, "unit": "%"}, {"measurement": "percentage of human HL60 cells, Minimum", "setting": "HL60 tumor cells; Bone marrow", "value": 55.9, "unit": "%"}]}]}
